Data reported in patent publication US5824699A, “Carbazole inhibitors of Cox-2” (American Home Products Corporation, priority 1998, dated 1998).
Counter-ions that a name gives are not always drawn. Like-named read-outs stand apart in the source and are kept apart here. Each block holds one compound with its values, some of them ahead of it.

What was measured:
[1] = Humber et al., J. Med. Chem. 31, 1712-1719 (1988); cited from earlier work
prostaglandin synthesis = conditions: Humber et al., J. Med. Chem. 31, 1712-1719 (1988); U.S. Pat. No. 4,686,213; cited from earlier work
human COX-2 (rhCOX-2) = biological target: T1, human COX-2 (rhCOX-2) (Homo sapiens, UniProt P35354); assay: inhibition of microsomal human recombinant COX-2 (PGH2 converted to PGF2a, quantified by EIA); format: biochemical; conditions: for IC50: rhCOX-2, value in parentheses = IC50, 30 μM arachidonic acid, read-out: % Inhib of rhCOX-2 (IC50); for inhibition at 3 µM: rhCOX-2, at 3 μM; for inhibition at 1 µM: rhCOX-2, at 1 μM; for inhibition at 3.3 µM: rhCOX-2, at 3.3 μM (* sodium salt for Example 19)
T1 construct: made in house; host or cells: Sf9 or CHO cells (microsomal preparation)
T1 sequence (P35354 18-604): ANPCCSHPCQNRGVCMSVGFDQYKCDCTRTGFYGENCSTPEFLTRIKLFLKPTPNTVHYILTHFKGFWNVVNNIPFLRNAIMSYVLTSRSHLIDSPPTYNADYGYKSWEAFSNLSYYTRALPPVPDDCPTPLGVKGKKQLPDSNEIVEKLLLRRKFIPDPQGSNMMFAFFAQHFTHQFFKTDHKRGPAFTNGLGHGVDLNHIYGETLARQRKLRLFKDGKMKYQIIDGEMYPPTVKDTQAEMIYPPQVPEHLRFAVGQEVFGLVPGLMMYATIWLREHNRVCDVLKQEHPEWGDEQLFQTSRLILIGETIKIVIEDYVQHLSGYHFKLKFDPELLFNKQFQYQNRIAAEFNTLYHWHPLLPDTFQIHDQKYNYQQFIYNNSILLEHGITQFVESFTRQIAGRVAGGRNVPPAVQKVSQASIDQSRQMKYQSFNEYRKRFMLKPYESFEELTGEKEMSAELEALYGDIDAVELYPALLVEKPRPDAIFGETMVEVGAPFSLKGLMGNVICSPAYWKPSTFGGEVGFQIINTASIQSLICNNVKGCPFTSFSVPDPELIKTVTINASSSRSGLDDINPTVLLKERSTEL
Method: (§1) The microsomal human recombinant enzymes were diluted with buffer (100 mM Tris, pH 7.8 at 37° C.) containing 0.5 mM phenol (964 μl total volume). The enzyme preparations were preincubated with vehicle (DMSO) or compounds in DMSO (1% DMSO in final assay) for 30 min at […]
(§2) The reaction was incubated for 35 s (maximum level of PGH2 accumulation as determined from time course studies), and terminated by addition of 50-60 μL of SnCl2 (1 mg/ml) in 0.1N HCl. PGH2 is quantitatively converted to PGF2a by this reaction ([…] of total conversion). The pH of each tube is adjusted to pH 3.0-3.5 with 1N NaOH and extracted twice with 1.5 ml of ethyl acetate (75-90% efficiency per extraction). Combined ethyl acetate layers were dried under N2 (g) and redissolved in EIA buffer (2.0 ml), and PGF2a was quantified by EIA.

human COX-1 (rhCOX-1) = biological target: T2, human COX-1 (rhCOX-1) (Homo sapiens, UniProt P23219); assay: inhibition of microsomal human recombinant COX-1 (PGH2 converted to PGF2a, quantified by EIA); format: biochemical
T2 construct: made in house; host or cells: Sf9 or CHO cells (microsomal preparation)
T2 sequence (P23219 24-599): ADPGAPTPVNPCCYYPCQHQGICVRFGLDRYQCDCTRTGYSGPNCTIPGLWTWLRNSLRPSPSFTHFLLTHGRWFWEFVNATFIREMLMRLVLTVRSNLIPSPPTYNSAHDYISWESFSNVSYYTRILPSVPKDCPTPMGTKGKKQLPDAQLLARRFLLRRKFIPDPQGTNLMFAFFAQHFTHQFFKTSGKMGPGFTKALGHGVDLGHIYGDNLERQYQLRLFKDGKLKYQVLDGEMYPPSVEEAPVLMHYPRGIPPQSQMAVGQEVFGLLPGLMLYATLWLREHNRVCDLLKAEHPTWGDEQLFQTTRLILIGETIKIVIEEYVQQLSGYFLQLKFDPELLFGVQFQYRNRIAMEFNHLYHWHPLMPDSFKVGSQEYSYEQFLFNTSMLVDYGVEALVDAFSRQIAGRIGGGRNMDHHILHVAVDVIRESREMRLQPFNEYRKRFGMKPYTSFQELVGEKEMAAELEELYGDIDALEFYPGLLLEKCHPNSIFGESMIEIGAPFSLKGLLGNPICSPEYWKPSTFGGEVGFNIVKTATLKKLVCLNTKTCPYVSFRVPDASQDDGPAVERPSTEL
Method: as §1, §2

[2] = cited from earlier work
COX-2 = conditions: Glaser et al., Eur. J. Pharmacol. 281, 107-111 (1995); cited from earlier work
[3] = Rogers et al., Neurology 43, 1609-1611 (1993); cited from earlier work
[4] = Table 1, rhCOX-1, at 90 μM, read-out: % Inhibition of rhCOX-1
[5] = Table 1, read-out: % Inhib of rhCOX-2
[6] = Table 2, read-out: % Inhib of rhCOX-2
[7] = Table 2, rhCOX-1, at 90 μM, read-out: % Inhibn of rhCOX-1
[8] = Table 3, read-out: Inhib rhCOX-2
[9] = Table 3, rhCOX-1, at 90 μM (* sodium salt for Example 19), read-out: % Inhib rhCOX-1

Structure (SMILES): CCc1cccc2c3c([nH]c12)C(CC)(CC(=O)O)OCC3=O (stereo not shown) [4-oxo metabolite]
- oral in vivo antiinflammatory activity [1]: had oral in vivo antiinflammatory activity
- activity in blocking prostaglandin synthesis (prostaglandin synthesis): active in blocking prostaglandin synthesis

Structure (SMILES): CCC1(CC(=O)O)OCC(=O)c2c1[nH]c1ccccc21 (stereo not shown) [Example 1, (1-Ethyl-4-oxo-1,3,4,9-tetrahydro-pyrano[3,4-b]indol-1-yl)-acetic acid]
- IC50 (human COX-2 (rhCOX-2); Table 1): 2100 nM
- inhibition at 90 µM (human COX-1 (rhCOX-1); [4]): 43%

Structure (SMILES): CCCC1(CC(=O)O)OCC(=O)c2c1[nH]c1ccccc21 (stereo not shown) [Example 2, (1-Propyl-4-oxo-1,3,4,9-tetrahydro-pyrano[3,4-b]indol-1-yl)-acetic acid]
- IC50 (human COX-2 (rhCOX-2); Table 1): 3200 nM
- inhibition at 90 µM (human COX-1 (rhCOX-1); [4]): 44%

Structure (SMILES): COCC1(CC(=O)O)OCC(=O)c2c1[nH]c1ccccc21 (stereo not shown) [Example 3, (1-Methoxymethyl-4-oxo-1,3,4,9-tetrahydro-pyrano[3,4-b]indol-1-yl)-acetic acid]
- inhibition at 3 µM (human COX-2 (rhCOX-2); [5]): 8%

Structure (SMILES): CCC1(CC(=O)O)OCC(=O)c2c1[nH]c1cccc(Cl)c21 (stereo not shown) [Example 5, (5-Chloro-1-ethyl-4-oxo-1,3,4,9-tetrahydro-pyrano[3,4-b]indol-1-yl)-aceticacid]
- IC50 (human COX-2 (rhCOX-2); Table 1): 1200 nM

Structure (SMILES): CCC1(CC(=O)O)OCC(=O)c2c1[nH]c1cccc(Br)c21 (stereo not shown) [Example 6, (5-Bromo-1-ethyl-4-oxo-1,3,4,9-tetrahydro-pyrano[3,4-b]indol-1-yl)-acetic acid]
- IC50 (human COX-2 (rhCOX-2); Table 1): 1100 nM

Structure (SMILES): CCC1(CC(=O)O)OCC(=O)c2c1[nH]c1cccc(C#N)c21 (stereo not shown) [Example 7, 5-Cyano-1-ethyl-4-oxo-1,3,4,9-tetrahydropyrano[3,4-b]indole-1-acetic acid]
- inhibition at 1 µM (human COX-2 (rhCOX-2); [5]): 7%

Structure (SMILES): C=CCc1c(F)ccc2c3c([nH]c12)C(CC)(CC(=O)O)OCC3=O (stereo not shown) [Example 8, 8-Allyl-1-ethyl-7-fluoro-4-oxo-1,3,4,9-tetrahydropyrano[3,4-b]indole-1-acetic acid]
- IC50 (human COX-2 (rhCOX-2); Table 1): 370 nM
- inhibition at 3 µM (human COX-1 (rhCOX-1); Table 1, rhCOX-1, at 3 μM): 78%

Structure (SMILES): CCCC1(CC(=O)O)CCC(=O)c2c1[nH]c1cc(F)cc(F)c21 (stereo not shown) [Example 17, (5,7-Difluoro-1-propyl-4-oxo-2,3,4,9-tetrahydro-1H-(carbazol-1-yl))-aceticacid]
- inhibition at 1 µM (human COX-2 (rhCOX-2); [6]): 13%

Structure (SMILES): CCc1cccc2c3c([nH]c12)C(CC)(CC(=O)O)OCC3=NO (stereo not shown) [Example 18, [1,8-Diethyl-4-hydroxyimino-1,3,4,9-tetrahydro-pyrano[3.4-b]indol-1-yl]-ace tic acid]
- inhibition at 3.3 µM (human COX-2 (rhCOX-2); [8]): 50%
- inhibition at 90 µM (human COX-1 (rhCOX-1); [9]): 96%

Structure (SMILES): CCc1cccc2c3c([nH]c12)C(CC)(CC(=O)O)OCC3=NNS(C)(=O)=O (stereo not shown) [Example 19, [1,8-Diethyl-4-(methanesulfonyl-hydrazono)-1,3,4,9-tetrahydro-pyrano [3,4-b]indol-1-yl]-acetic acid sodium salt]
- inhibition at 3.3 µM (human COX-2 (rhCOX-2); [8]): 50%
- inhibition at 90 µM (human COX-1 (rhCOX-1); [9]): 96%

Structure (SMILES): CCc1cccc2c3c([nH]c12)C(CC)(CC(=O)O)OCC3 (stereo not shown) [etodolac]
- G.I. safety ([2]; in vivo): improved G.I. safety
- selectivity for inhibition of COX-2 (COX-2): tenfold

Structure (SMILES): COc1ccc2c(c1)c(CC(=O)O)c(C)n2C(=O)c1ccc(Cl)cc1 [indomethacin]
- G.I. safety ([2]; literature): adverse G.I. side effects
- selectivity for inhibition of COX-2 (COX-2): relatively non-selective inhibitor of COX-2
- usefulness in the treatment of Alzheimer's disease [3]: useful in the treatment of Alzheimer's disease

The next lines start with the values.

- IC50 (human COX-2 (rhCOX-2); Table 1): 1900 nM
- IC50 (human COX-1 (rhCOX-1); Table 1, rhCOX-1, read-out: % Inhibition of rhCOX-1 (value in parentheses, IC50)): > 270000 nM
Structure (SMILES): CCc1cccc2c3c([nH]c12)C(CC)(CC(=O)O)OCC3=O (stereo not shown) [Example 4, 1,8-Diethyl-4-oxo-1,3,4,9-tetrahydro-pyrano-[3,4-b]indole-1-acetic acid]

- inhibition at 3 µM (human COX-2 (rhCOX-2); [6]): 26%
Structure (SMILES): CCC1(CC(=O)O)CCC(=O)c2c1[nH]c1ccccc21 (stereo not shown) [Example 9, [1-Ethyl-4oxo-2,3,4,9-tetrahydro-1H-(carbazol-1-yl)]-acetic acid]

- IC50 (human COX-2 (rhCOX-2); Table 2): 2000 nM
- inhibition at 90 µM (human COX-1 (rhCOX-1); [7]): 26%
Structure (SMILES): CCc1cccc2c3c([nH]c12)C(CC)(CC(=O)O)CCC3=O (stereo not shown) [Example 10, [1,8-Diethyl-4-oxo-2,3,4,9-tetrahydro-1H-(carbazol-1-yl)]-acetic acid]

- inhibition at 3 µM (human COX-2 (rhCOX-2); [6]): 40%
- inhibition at 90 µM (human COX-1 (rhCOX-1); [7]): 85%
Structure (SMILES): CCC1(CC(=O)O)CCC(=O)c2c1[nH]c1c(C(C)C)cccc21 (stereo not shown) [Example 11, [1-Ethyl-8-isopropyl-4-oxo-2,3,4,9-tetrahydro-1H-(carbazol-1-yl)]-acetic acid]

- inhibition at 1 µM (human COX-2 (rhCOX-2); [6]): 12%
- inhibition at 30 µM (human COX-1 (rhCOX-1); Table 2, rhCOX-1, at 30 μM, read-out: % Inhibn of rhCOX-1): 5%
Structure (SMILES): CCC1(CC(=O)O)CCC(=O)c2c1[nH]c1cccc(Cl)c21 (stereo not shown) [Example 12, [1-Ethyl-5-chloro-4-oxo-2,3,4,9-tetrahydro-1H-(carbazol-1-yl)]-acetic acid]

- inhibition at 1 µM (human COX-2 (rhCOX-2); [6]): 25%
Structure (SMILES): CCC1(CC(=O)O)CCC(=O)c2c1[nH]c1c(F)ccc(F)c21 (stereo not shown) [Example 13, (1-Ethyl-5,8-difluoro-4-oxo-2,3,4,9-tetrahydro-1H-(carbazol-1-yl))-acetic acid]

- IC50 (human COX-2 (rhCOX-2); Table 2): 700 nM
- inhibition at 23 µM (human COX-1 (rhCOX-1); Table 2, rhCOX-1, at 23 μM, read-out: % Inhibn of rhCOX-1): 50%
Structure (SMILES): CCC1(CC(=O)O)CCC(=O)c2c1[nH]c1c(F)c(F)ccc21 (stereo not shown) [Example 14, (7.8-Difluoro-1-ethyl-4-oxo-2,3,4,9-tetrahydro-1H-(carbazol-1-yl))-acetic acid]

- inhibition at 1 µM (human COX-2 (rhCOX-2); [6]): 30%
Structure (SMILES): C=CCC1(CC(=O)O)CCC(=O)c2c1[nH]c1c(F)ccc(F)c21 (stereo not shown) [Example 15, (1-Allyl-5,8-difluoro-4-oxo-2,3,4,9-tetrahydro-1H-(carbazol-1-yl))-acetic acid]

- inhibition at 1 µM (human COX-2 (rhCOX-2); [6]): 29%
Structure (SMILES): CCCC1(CC(=O)O)CCC(=O)c2c1[nH]c1c(F)ccc(F)c21 (stereo not shown) [Example 16, (5,8-Difluoro-4-oxo-1-propyl-2,3,4,9-tetrahydro-1H-(carbazol-1-yl))-aceticacid]

- inhibition at 1 µM (human COX-2 (rhCOX-2); [8]): 18%
Structure (SMILES): CCc1cccc2c3c([nH]c12)C(CC)(CC(=O)O)CCC3=NO (stereo not shown) [Example 20, (1,8-Diethyl-4-hydroxyimino-2,3,4,9-tetrahydro-1H-carbazol-1-yl)-acetic acid]
